Values quoted from earlier work in patent US8883830B2, “Topical therapy for the treatment of migraines, muscle sprains, muscle spasms, spasticity and related conditions” (Afgin Pharma LLC., priority 2003, dated 2014).

Experiments:
[1] = relative to ergotamine

| oral bioavailability [%] | Compound | emetic activity compared with ergotamine [1] |
| --- | --- | --- |
| ~70 | CNS(=O)(=O)CCc1ccc2[nH]cc(C3CCN(C)CC3)c2c1 [naratriptan] |  |
|  | CN1C[C@H](C(=O)N[C@]2(C)O[C@@]3(O)[C@@H]4CCCN4C(=O)[C@H](Cc4ccccc4)N3C2=O)C[C@@H]2c3cccc4[nH]cc(c34)C[C@H]21 [Dihydroergotamine] | about 12 times less active |
